Results: US9765060B2 (Gilead Sciences, Inc., priority 2014, dated 2017)
Like-named read-outs stand apart in the source and are kept apart here.

Target: PI3K isoform δ (Homo sapiens (Human), UniProt O00329)
Test: TR-FRET assay of enzymatic activity of class I PI3K isoforms
[1] = read-out: IC50 (nM) for PI3K isoform δ (Table 3), TR-FRET, 2× Km ATP, 2 μM PIP2, incubated for 30 minutes at 25° C.

Chain of PI3K isoform δ (O00329 whole entry, canonical isoform): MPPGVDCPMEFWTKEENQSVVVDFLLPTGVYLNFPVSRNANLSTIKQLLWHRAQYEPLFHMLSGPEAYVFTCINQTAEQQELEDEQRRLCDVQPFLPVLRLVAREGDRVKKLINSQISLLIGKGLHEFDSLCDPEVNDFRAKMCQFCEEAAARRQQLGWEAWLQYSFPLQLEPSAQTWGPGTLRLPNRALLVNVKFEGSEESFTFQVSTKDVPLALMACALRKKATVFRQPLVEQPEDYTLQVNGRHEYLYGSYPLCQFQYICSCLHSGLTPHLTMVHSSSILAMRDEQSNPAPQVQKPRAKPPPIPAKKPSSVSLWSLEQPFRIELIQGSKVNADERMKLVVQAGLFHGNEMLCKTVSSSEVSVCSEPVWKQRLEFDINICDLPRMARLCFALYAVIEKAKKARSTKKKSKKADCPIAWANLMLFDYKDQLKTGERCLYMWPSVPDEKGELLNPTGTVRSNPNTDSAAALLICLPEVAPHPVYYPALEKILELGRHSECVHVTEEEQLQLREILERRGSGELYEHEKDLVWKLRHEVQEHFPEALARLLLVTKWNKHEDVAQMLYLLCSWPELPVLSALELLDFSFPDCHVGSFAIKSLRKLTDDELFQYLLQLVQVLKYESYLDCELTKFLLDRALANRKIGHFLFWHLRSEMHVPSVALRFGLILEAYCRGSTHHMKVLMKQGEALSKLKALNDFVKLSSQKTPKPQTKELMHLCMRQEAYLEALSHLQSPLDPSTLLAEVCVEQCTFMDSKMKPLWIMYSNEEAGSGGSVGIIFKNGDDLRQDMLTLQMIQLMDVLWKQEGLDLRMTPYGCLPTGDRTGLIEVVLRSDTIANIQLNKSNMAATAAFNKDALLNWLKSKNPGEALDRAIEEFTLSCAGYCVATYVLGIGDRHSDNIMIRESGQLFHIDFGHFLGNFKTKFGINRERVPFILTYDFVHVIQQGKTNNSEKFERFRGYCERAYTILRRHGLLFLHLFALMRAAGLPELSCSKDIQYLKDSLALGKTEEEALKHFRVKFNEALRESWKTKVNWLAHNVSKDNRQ
Chain of PI3K isoform δ (P27986 whole entry partner, canonical isoform): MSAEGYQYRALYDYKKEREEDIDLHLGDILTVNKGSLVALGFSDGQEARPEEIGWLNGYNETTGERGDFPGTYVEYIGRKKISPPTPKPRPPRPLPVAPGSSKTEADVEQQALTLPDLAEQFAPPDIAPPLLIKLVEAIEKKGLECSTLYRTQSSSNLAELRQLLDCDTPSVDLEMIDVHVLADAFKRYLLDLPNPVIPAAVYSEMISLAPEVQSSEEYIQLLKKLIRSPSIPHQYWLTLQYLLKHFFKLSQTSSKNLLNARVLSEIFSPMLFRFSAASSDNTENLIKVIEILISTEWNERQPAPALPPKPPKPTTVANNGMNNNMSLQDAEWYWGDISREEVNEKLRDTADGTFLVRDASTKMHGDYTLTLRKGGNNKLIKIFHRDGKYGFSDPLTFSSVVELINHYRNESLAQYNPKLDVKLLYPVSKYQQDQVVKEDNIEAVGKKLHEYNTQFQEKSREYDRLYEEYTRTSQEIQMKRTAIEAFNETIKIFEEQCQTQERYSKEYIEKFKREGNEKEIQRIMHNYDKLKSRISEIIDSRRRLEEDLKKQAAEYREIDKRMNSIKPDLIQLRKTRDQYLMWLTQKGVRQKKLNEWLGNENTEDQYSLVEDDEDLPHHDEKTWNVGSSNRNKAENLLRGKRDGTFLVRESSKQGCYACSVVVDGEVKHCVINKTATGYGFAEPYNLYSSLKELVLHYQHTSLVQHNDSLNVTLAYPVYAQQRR
Description: TR-FRET monitored the formation of 3,4,5-inositol triphosphate molecule that competed with fluorescently labeled PIP3 for binding to the GRP-1 pleckstrin homology domain protein. […] Class I PI3K isoforms were expressed and purified as heterodimeric recombinant proteins. All assay reagents and buffers for the TR-FRET assay were purchased from Millipore.

| Structure (SMILES) | IC50 [1] [nM] | IC50 [nM] |
| --- | --- | --- |
| C[C@H](Nc1nc(N)nc(N)c1C#N)c1nc2c(F)ccc(CCCN3CCCC3)c2c(=O)n1-c1ccccc1 [Compound 50, (S)-2,4-diamino-6-((1-(8-fluoro-4-oxo-3-phenyl-5-(3-(pyrrolidin-1-yl)propyl)-3,4-dihydroquinazolin-2-yl)ethyl)amino)pyrimidine-5-carbonitrile] | 1.3 | – |
| N#Cc1c(N)nc(N)nc1N[C@H](c1nc2cccc(CCCN3CCCC3)c2c(=O)n1-c1ccccc1)C1CC1 [Compound 56, (S)-2,4-diamino-6-((cyclopropyl(4-oxo-3-phenyl-5-(3-(pyrrolidin-1-yl)propyl)-3,4-dihydroquinazolin-2-yl)methyl)amino)pyrimidine-5-carbonitrile] | 3 | – |
| N#Cc1c(N)nc(N)nc1N[C@H](c1nc2cccc(CCCN3CCCCC3)c2c(=O)n1-c1ccccc1)C1CC1 [Compound 57, (S)-2,4-diamino-6-((cyclopropyl(4-oxo-3-phenyl-5-(3-(piperidin-1-yl)propyl)-3,4-dihydroquinazolin-2-yl)methyl)amino)pyrimidine-5-carbonitrile] | 1.4 | – |
| N#Cc1c(N)nc(N)nc1N[C@H](c1nc2c(F)ccc(CCCN3CCCC3)c2c(=O)n1-c1ccccc1)C1CC1 [Compound 58, (S)-2,4-diamino-6-((cyclopropyl(8-fluoro-4-oxo-3-phenyl-5-(3-(pyrrolidin-1-yl)propyl)-3,4-dihydroquinazolin-2-yl)methyl)amino)pyrimidine-5-carbonitrile] | 3 | – |
| C[C@H](Nc1nc(N)nc(N)c1C#N)c1nc2cccc(CCCN3CC4(COC4)C3)c2c(=O)n1-c1ccccc1 [Compound 62, (S)-4-((1-(5-(3-(2-oxa-6-azaspiro[3.3]heptan-6-yl)propyl)-4-oxo-3-phenyl-3,4-dihydroquinazolin-2-yl)ethyl)amino)-2,6-diaminopyrimidine-5-carbonitrile] | 0.8 | – |
| C[C@H](Nc1nc(N)nc(N)c1C#N)c1nc2cccc(CCCN3CCC4(COC4)C3)c2c(=O)n1-c1ccccc1 [Compound 63, (S)-4-((1-(5-(3-(2-oxa-6-azaspiro[3.4]octan-6-yl)propyl)-4-oxo-3-phenyl-3,4-dihydroquinazolin-2-yl)ethyl)amino)-2,6-diaminopyrimidine-5-carbonitrile] | 0.8 | – |
| C[C@H](Nc1nc(N)nc(N)c1C#N)c1nc2cccc(CCCN3CCC4(CC3)COC4)c2c(=O)n1-c1ccccc1 [Compound 64, (S)-4-((1-(5-(3-(2-oxa-7-azaspiro[3.5]nonan-7-yl)propyl)-4-oxo-3-phenyl-3,4-dihydroquinazolin-2-yl)ethyl)amino)-2,6-diaminopyrimidine-5-carbonitrile] | 30 | – |
| C[C@H](Nc1nc(N)nc(Cl)c1C#N)c1nc2c(F)ccc(Cl)c2c(=O)n1-c1ccccc1 [Compound 66, (S)-2-amino-4-chloro-6-((1-(5-chloro-8-fluoro-4-oxo-3-phenyl-3,4-dihydroquinazolin-2-yl)ethyl)amino)pyrimidine-5-carbonitrile] | 0.7 | – |
| N#Cc1c(N)nc(N)nc1N1CC[C@H]1c1nc2cccc(Cl)c2c(=O)n1-c1cc(F)cc(F)c1 [Compound 67, (S)-2,4-diamino-6-(2-(5-chloro-3-(3,5-difluorophenyl)-4-oxo-3,4-dihydroquinazolin-2-yl)azetidin-1-yl)pyrimidine-5-carbonitrile] | 110 | – |
| C[C@H](Nc1nc(N)nc(N)c1C#N)c1nc2cccc(CCCC(=O)O)c2c(=O)n1-c1ccccc1 [Compound 69, (S)-4-(2-(1-((2,6-diamino-5-cyanopyrimidin-4-yl)amino)ethyl)-4-oxo-3-phenyl-3,4-dihydroquinazolin-5-yl)butanoic acid] | 1 | – |
| N#Cc1c(N)nc(N)nc1N1CCC[C@H]1c1nc2cccc(CCCC(=O)O)c2c(=O)n1-c1ccccc1 [Compound 70, (S)-4-(2-(1-(2,6-diamino-5-cyanopyrimidin-4-yl)pyrrolidin-2-yl)-4-oxo-3-phenyl-3,4-dihydroquinazolin-5-yl)butanoic acid] | 3 | – |
| C[C@H](Nc1nc(N)nc(N)c1C#N)c1nc2cccc(CCCC(=O)O)c2c(=O)n1-c1cc(F)cc(F)c1 [Compound 71, (S)-4-(2-(1-((2,6-diamino-5-cyanopyrimidin-4-yl)amino)ethyl)-3-(3,5-difluorophenyl)-4-oxo-3,4-dihydroquinazolin-5-yl)butanoic acid] | 2 | – |
| CS(=O)(=O)c1cccc2nc([C@@H]3CCCN3c3nc(N)nc(N)c3C#N)n(-c3cccc(F)c3)c(=O)c12 [Compound 72, (S)-2,4-diamino-6-(2-(3-(3-fluorophenyl)-5-(methylsulfonyl)-4-oxo-3,4-dihydroquinazolin-2-yl)pyrrolidin-1-yl)pyrimidine-5-carbonitrile] | 4 | – |
| CS(=O)(=O)c1cccc2nc([C@@H]3CCCN3c3nc(N)nc(N)c3C#N)n(-c3c(F)cccc3F)c(=O)c12 [Compound 75, (S)-2,4-diamino-6-(2-(3-(2,6-difluorophenyl)-5-(methylsulfonyl)-4-oxo-3,4-dihydroquinazolin-2-yl)pyrrolidin-1-yl)pyrimidine-5-carbonitrile] | 1.2 | – |
| C[C@H](Nc1nc(N)nc(N)c1C#N)c1nc2cccc(S(=O)(=O)CCO)c2c(=O)n1-c1cccc(F)c1 [Compound 78, (S)-2,4-diamino-6-((1-(3-(3-fluorophenyl)-5-((2-hydroxyethyl)sulfonyl)-4-oxo-3,4-dihydroquinazolin-2-yl)ethyl)amino)pyrimidine-5-carbonitrile] | 9 | – |
| C[C@H](Nc1nc(N)nc(N)c1C#N)c1nc2cccc(SCCO)c2c(=O)n1-c1cccc(F)c1 [Compound 79, (S)-2,4-diamino-6-((1-(3-(3-fluorophenyl)-5-((2-hydroxyethyl)thio)-4-oxo-3,4-dihydroquinazolin-2-yl)ethyl)amino)pyrimidine-5-carbonitrile] | 51 | – |
| C[C@H](Nc1nc(N)nc(N)c1C#N)c1nc2cccc(S(=O)(=O)C3CCCC3)c2c(=O)n1-c1cccc(F)c1 [Compound 80, (S)-2,4-diamino-6-((1-(5-(cyclopentylsulfonyl)-3-(3-fluorophenyl)-4-oxo-3,4-dihydroquinazolin-2-yl)ethyl)amino)pyrimidine-5-carbonitrile] | 61 | – |

Other lines, results leading:

| IC50 [1] [nM] | IC50 [nM] | Structure (SMILES) |
| --- | --- | --- |
| 3 | – | C[C@H](Nc1nc(N)nc(N)c1C#N)c1nc2cccc(CCCN3CCCC3)c2c(=O)n1-c1cc(F)cc(F)c1 [Compound 51, (S)-2,4-diamino-6-((1-(3-(3,5-difluorophenyl)-4-oxo-5-(3-(pyrrolidin-1-yl)propyl)-3,4-dihydroquinazolin-2-yl)ethyl)amino)pyrimidine-5-carbonitrile] |
| 0.7 | – | C[C@H](Nc1nc(N)nc(N)c1C#N)c1nc2cccc(CCCN3CCOC(C)(C)C3)c2c(=O)n1-c1ccccc1 [Compound 52, (S)-2,4-diamino-6-((1-(5-(3-(2,2-dimethylmorpholino)propyl)-4-oxo-3-phenyl-3,4-dihydroquinazolin-2-yl)ethyl)amino)pyrimidine-5-carbonitrile] |
| 0.7 | – | C[C@H](Nc1nc(N)nc(N)c1C#N)c1nc2cccc(CCCN3CCOCC3(C)C)c2c(=O)n1-c1ccccc1 [Compound 53, (S)-2,4-diamino-6-((1-(5-(3-(3,3-dimethylmorpholino)propyl)-4-oxo-3-phenyl-3,4-dihydroquinazolin-2-yl)ethyl)amino)pyrimidine-5-carbonitrile] |
| 0.5 | – | C[C@H](Nc1nc(N)nc(N)c1C#N)c1nc2cccc(CCCN3CC(F)(F)OC(F)(F)C3)c2c(=O)n1-c1ccccc1 [Compound 54, (S)-2,4-diamino-6-((1-(4-oxo-3-phenyl-5-(3-(2,2,6,6-tetrafluoromorpholino)propyl)-3,4-dihydroquinazolin-2-yl)ethyl)amino)pyrimidine-5-carbonitrile] |
| 0.4 | – | C[C@H](Nc1nc(N)nc(N)c1C#N)c1nc2c(F)ccc(CCCN3CCC(F)(F)C3)c2c(=O)n1-c1ccccc1 [Compound 55, (S)-2,4-diamino-6-((1-(5-(3-(3,3-difluoropyrrolidin-1-yl)propyl)-8-fluoro-4-oxo-3-phenyl-3,4-dihydroquinazolin-2-yl)ethyl)amino)pyrimidine-5-carbonitrile] |
| 2 | – | N#Cc1c(N)nc(N)nc1N[C@H](c1nc2c(F)ccc(CCCN3CCCCC3)c2c(=O)n1-c1ccccc1)C1CC1 [Compound 59, (S)-2,4-diamino-6-((cyclopropyl(8-fluoro-4-oxo-3-phenyl-5-(3-(piperidin-1-yl)propyl)-3,4-dihydroquinazolin-2-yl)methyl)amino)pyrimidine-5-carbonitrile] |
| 6 | – | N#Cc1c(Cl)nc(N)nc1N[C@H](c1nc2cccc(CCCN3CCCC3)c2c(=O)n1-c1ccccc1)C1CC1 [Compound 60, (S)-2-amino-4-chloro-6-((cyclopropyl(4-oxo-3-phenyl-5-(3-(pyrrolidin-1-yl)propyl)-3,4-dihydroquinazolin-2-yl)methyl)amino)pyrimidine-5-carbonitrile] |
| 15 | – | C[C@H](Nc1nc(N)nc(N)c1C#N)c1nc2cccc(CCCC3CCCCC3)c2c(=O)n1-c1ccccc1 [Compound 65, (S)-2,4-diamino-6-((1-(5-(3-cyclohexylpropyl)-4-oxo-3-phenyl-3,4-dihydroquinazolin-2-yl)ethyl)amino)pyrimidine-5-carbonitrile] |
| 30 | – | N#Cc1c(N)nc(N)nc1N1CC[C@H]1c1nc2cccc(Cl)c2c(=O)n1-c1ccccc1 [Compound 68, (S)-2,4-diamino-6-(2-(5-chloro-4-oxo-3-phenyl-3,4-dihydroquinazolin-2-yl)azetidin-1-yl)pyrimidine-5-carbonitrile] |
| 1.3 | – | C[C@H](Nc1nc(N)nc(N)c1C#N)c1nc2cccc(S(=O)(=O)c3ccccc3)c2c(=O)n1-c1cccc(F)c1 [Compound 76, (S)-2,4-diamino-6-((1-(3-(3-fluorophenyl)-4-oxo-5-(phenylsulfonyl)-3,4-dihydroquinazolin-2-yl)ethyl)amino)pyrimidine-5-carbonitrile] |
| – | 2 | N#Cc1c(N)nc(N)nc1N1CCC[C@H]1c1nc2cccc(S(=O)(=O)c3ccccc3)c2c(=O)n1-c1cccc(F)c1 [Compound 77] |
